Reference: patent US10617748B2, “Immunogenic control of tumours and tumour cells” (LIFE SCIENCES RESEARCH PARTNERS VZW, priority 2008, dated 2020)
Peptide text beside a SMILES is read from it.

What was measured:
[1] = system: APCs presenting the natural or modified survivin T-cell epitope; assay: Cytotoxic CD4+ T cells elicited by in vivo immunisation; apoptosis (annexin V, Facs) of peptide-loaded APC in co-culture, survivin epitope; parameters: species or system C57BI/6 mice; settings: 25 μg peptide, 3 footpath injections in CFA/IFA; splenic CD4+ T cells co-cultured 24 h with APC loaded with SEQ ID NO:5 or SEQ ID NO:6 (5 μg/mL)
Method: The sequence of the peptide corresponds to amino acids 61 to 69 of survivin, namely: FKELEGWEP (SEQ ID NO:5).
(§1) Finally, cells are analysed by Facs analysis.

[2] = system: APCs presenting the natural or modified MAGE-3 T-cell epitope; assay: Cytotoxic CD4+ T cells elicited by in vivo immunisation; apoptosis (annexin V, Facs) of peptide-loaded APC in co-culture, MAGE-3 epitope; parameters: species or system C57BI/6 mice; settings: 25 μg peptide, 3 footpath injections in CFA/IFA; splenic CD4+ T cells co-cultured 24 h with APC loaded with SEQ ID NO:1 or SEQ ID NO:2 (5 μg/mL)
Method: The sequence of the (natural) T-cell epitope corresponds to amino acids 258 to 266 of MAGE-3, namely: YRQVPGSDP (SEQ ID NO:1).
as §1

[3] = system: APCs presenting the natural or modified Epstein-Barr LMP2 T-cell epitope; assay: Cytotoxic CD4+ T cells elicited by in vivo immunisation; apoptosis (annexin V, Facs) of peptide-loaded APC in co-culture, Epstein-Barr LMP2 epitope; parameters: species or system BALB/c mice; settings: 25 μg peptide, 3 footpath injections in CFA/IFA; splenic CD4+ T cells co-cultured 24 h with APC loaded with SEQ ID NO:7 or SEQ ID NO:8 (5 μg/mL)
Method: The sequence of the peptide corresponds to amino acids 167 to 175 of LMP2, namely: VASSYAAAQ (SEQ ID NO:7).
Spleen adherent cells prepared from naïve BALB/c mice are used as antigen-presenting cells (APC).
as §1

Q: How did the “elicitation of CD4+ T cells with cytotoxic properties towards APCs” value (“elicitation of CD4+ T cells” below) [1] turn out when `CC(C)C[C@H](NC(=O)[C@H](CCC(=O)O)NC(=O)[C@H](CCCCN)NC(=O)[C@H](Cc1ccccc1)NC(=O)[C@H](CS)NC(=O)CNC(=O)[C@H](Cc1c[nH]cn1)NC(=O)[C@@H](N)CS)C(=O)N[C@@H](CCC(=O)O)C(=O)NCC(=O)N[C@@H](Cc1c[nH]c2ccccc12)C(=O)N[C@@H](CCC(=O)O)C(=O)N1CCC[C@H]1C(=O)O` [SEQ ID NO:6, CHGCFKELEGWEP] (H-CHGCFKELEGWEP-OH) was run?
A: can elicit CD4+ T cells with cytotoxic properties

Q: `CC(C)[C@H](NC(=O)[C@H](CCC(N)=O)NC(=O)[C@H](CCCNC(=N)N)NC(=O)[C@H](Cc1ccc(O)cc1)NC(=O)[C@H](CS)NC(=O)CNC(=O)[C@H](Cc1c[nH]cn1)NC(=O)[C@@H](N)CS)C(=O)N1CCC[C@H]1C(=O)NCC(=O)N[C@@H](CO)C(=O)N[C@@H](CC(=O)O)C(=O)N1CCC[C@H]1C(=O)O` [SEQ ID NO:2, CHGCYRQVPGSDP] (H-CHGCYRQVPGSDP-OH) was tested. Which “elicitation of CD4+ T cells” value [2] did it give?
A: can elicit CD4+ T cells with cytotoxic properties

Q: How did the “elicitation of CD4+ T cells” value [3] turn out when `CC(C)[C@H](NC(=O)[C@H](CS)NC(=O)CNC(=O)[C@H](Cc1c[nH]cn1)NC(=O)[C@@H](N)CS)C(=O)N[C@@H](C)C(=O)N[C@@H](CO)C(=O)N[C@@H](CO)C(=O)N[C@@H](Cc1ccc(O)cc1)C(=O)N[C@@H](C)C(=O)N[C@@H](C)C(=O)N[C@@H](C)C(=O)N[C@@H](CCC(N)=O)C(=O)O` [SEQ ID NO:8, CHGCVASSYAAAQ] (H-CHGCVASSYAAAQ-OH) was run?
A: can elicit CD4+ T cells with cytotoxic properties
